In patent US6355614B1, “Cyclic boroproline compounds” (Point Therapeutics, priority 1998, dated 2002):

Experiment: Conformational equilibrium of open chain and cyclic forms in aqueous solution (from apparent Ki at equilibrium vs true Ki)
Type: physicochemical
Details: at equilibrium at pH 7.0
Source text: See FIG. 3 which is a diagram showing the structures of the open and cyclized forms of Xaa-boroPro inhibitors (conformational equilibrium of Xaa-boroproline inhibitors). The open, active, inhibitory chain species is favored at low pH while the cyclized structure is favored at neutral pH. The reaction is fully reversible: the open chain becomes predominant at low pH. The open chain to cyclic species reaction involves a trans to cis isomerization of the proline and the formation of a new N—B bond. […] G. Gutheil and W. W. Bachovchin, Separation of L-Pro-DL-boroPro into Its Component Diastereomers and Kinetic Analysis of Their Inhibition of Dipeptidyl Peptidase IV. A New Method for the Analysis of Slow, Tight-Binding Inhibition, Biochemistry 32, 8723-8731 (1993)).

| Compound | fraction existing as the open chain, inhibitory species |
| --- | --- |
| O=C(C1CCCN1)N1CCCC1B(O)O (centres unmarked) [Pro-boroPro] | less than 1% |
| CC(C)C(N)C(=O)N1CCCC1B(O)O (centres unmarked) [Val-boroPro] | less than 0.1% |
